{"source": "paper PMC12206857", "about": "(Frontiers in Microbiology, 2025)", "key": {"F. graminearum [1]": {"test_system": "F. graminearum", "assay_type": "in vivo, Fusarium graminearum on corn seeds", "conditions": "seeds soaked in 64 μg/mL, sprayed with spores 1 × 10^5 CFU/mL, 28°C, 10 seeds per group"}, "DON and ZEN": {"test_system": "DON and ZEN", "set-up": "species or system Fusarium graminearum on corn seeds", "conditions": "in vivo"}, "F. graminearum [2]": {"test_system": "F. graminearum", "assay_type": "physicochemical, Fusarium graminearum", "conditions": "filter paper method; for Effect of divalent cations Fe2+, Mg2+, Ca2+ on antifungal activity: 10 nM metal ion; for Thermal stability of antifungal activity: 25°C, 50°C, 100°C water for 30 min"}, "F. graminearum hyphae": {"test_system": "F. graminearum hyphae", "assay_type": "cell-based, Fusarium graminearum", "conditions": "16 and 32 μg/mL, 12 h in PDB at 28°C"}, "F. graminearum [3]": {"test_system": "F. graminearum", "assay_type": "cell-based, Fusarium graminearum", "conditions": "dose-dependent, DCFH-DA fluorescence"}, "F. graminearum [4]": {"test_system": "F. graminearum", "assay_type": "cell-based, Fusarium graminearum", "conditions": "DiSC3(5) fluorescence"}, "proteinase K": {"target": "proteinase K (Parengyodontium album, UniProt P06873)", "sequence (P06873 106-384)": "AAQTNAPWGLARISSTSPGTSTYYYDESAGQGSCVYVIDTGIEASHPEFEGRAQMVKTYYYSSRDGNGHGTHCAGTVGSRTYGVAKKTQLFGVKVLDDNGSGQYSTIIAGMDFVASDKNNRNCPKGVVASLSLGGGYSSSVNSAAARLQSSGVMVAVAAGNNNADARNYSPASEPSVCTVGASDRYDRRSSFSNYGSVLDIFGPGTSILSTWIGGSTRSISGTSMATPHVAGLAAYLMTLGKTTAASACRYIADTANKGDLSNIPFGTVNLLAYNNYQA", "conditions": "n = 3"}, "trypsin": {"test_system": "trypsin", "conditions": "5 mg/mL enzyme, 1 h, 37°C, stopped 10 min at 100°C; read-out antifungal activity against F. graminearum by filter paper method; n = 3"}, "pepsin": {"test_system": "pepsin", "conditions": "5 mg/mL enzyme, 1 h, 37°C, stopped 10 min at 100°C; read-out antifungal activity against F. graminearum by filter paper method; n = 3"}, "papain": {"target": "T1, papain (Carica papaya, UniProt P00784)", "T1 sequence (P00784 134-345)": "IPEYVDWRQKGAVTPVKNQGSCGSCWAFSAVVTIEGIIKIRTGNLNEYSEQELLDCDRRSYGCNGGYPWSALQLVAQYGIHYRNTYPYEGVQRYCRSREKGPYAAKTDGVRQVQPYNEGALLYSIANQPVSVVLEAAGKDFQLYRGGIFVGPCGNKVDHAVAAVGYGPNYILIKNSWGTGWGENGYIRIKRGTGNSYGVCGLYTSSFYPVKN", "conditions": "n = 3"}, "F. graminearum [5]": {"test_system": "F. graminearum", "conditions": "mixture of bacillomycin D with different fatty acid chain lengths; ref Gu et al., 2017; cited from earlier work"}, "F. graminearum conidia": {"test_system": "F. graminearum conidia", "conditions": "ref Gong et al., 2015; cited from earlier work"}, "Fusarium oxysporum": {"test_system": "Fusarium oxysporum", "conditions": "25 μg/mL or 50 μg/mL; ref Hua et al., 2023; cited from earlier work"}, "F. graminearum cells": {"test_system": "F. graminearum cells", "conditions": "ref Liang et al., 2023; cited from earlier work"}}, "note": "“Also recorded” adds a separate entry of the source. Like-named read-outs stand apart in the source and are kept apart here. *1 amine or outer side, *2 acyl side, *3 side chain or, on linkers, in order; H or OH if unused. Where a SMILES comes first, the peptide text is derived from it. [ ]: non-standard residue; d: D form. X1 = CC(C)CCCCCCCCC[C@H](CC(=O)[*:2])N[*:1]", "data": [{"molecule": "CC(C)CCCCCCCCC[C@@H]1CC(=O)N[C@@H](CC(N)=O)C(=O)N[C@H](Cc2ccc(O)cc2)C(=O)N[C@H](CC(N)=O)C(=O)N2CCC[C@H]2C(=O)N[C@@H](CCC(=O)O)C(=O)N[C@H](CO)C(=O)N[C@@H]([C@@H](C)O)C(=O)N1", "note": "[bacillomycin D, C15-bacillomycin D] (cyclo([X1]N[dY][dN]PE[dS]T))", "values": [{"measurement": "Infection of maize seeds by F. graminearum", "setting": "F. graminearum [1]", "result": "completely preventing infection"}, {"measurement": "DON toxin synthesis in treated maize seeds", "setting": "DON and ZEN", "result": "no detectable synthesis"}, {"measurement": "ZEN toxin synthesis in treated maize seeds", "setting": "DON and ZEN", "result": "no detectable synthesis"}, {"measurement": "Stability of antifungal activity in the presence of metal ions", "setting": "F. graminearum [2]; 10 nM Na+, K+, Ca2+, Mg2+, Cu2+, Fe2+, Fe3+, room temperature, 2.5 mg/mL, n = 3", "result": "retained stable antibacterial activity"}, {"measurement": "Effect of divalent cations Fe2+, Mg2+, Ca2+ on antifungal activity", "setting": "F. graminearum [2]; room temperature, 2.5 mg/mL, n = 3", "result": "enhance their antifungal activity"}, {"measurement": "Effect of divalent cations Fe2+, Mg2+, Ca2+ on antifungal activity", "setting": "F. graminearum [2]; room temperature, 2.5 mg/mL, n = 3, listed as eumelanin", "result": "significantly enhanced"}, {"measurement": "Thermal stability of antifungal activity", "setting": "F. graminearum [2]; 7 μL of 2.5 mg/mL, colony diameter after 24 h at 28°C, n = 3", "result": "remains stable"}, {"measurement": "Thermal stability of antifungal activity", "setting": "F. graminearum [2]; 7 μL of 2.5 mg/mL, colony diameter after 24 h at 28°C, n = 3, listed as Bacillomycin D", "result": "maintained stable antibacterial activity"}, {"measurement": "Antifungal activity across pH range 2–12", "setting": "F. graminearum [2]; pH 2–12, room temperature", "result": "maintains good antifungal activity"}, {"measurement": "pH stability of antifungal activity, pH 8 or 10", "setting": "F. graminearum [2]; pH 8 or 10 (pH 8–10), room temperature, 7 μL of 2.5 mg/mL, colony diameter after 24 h at 28°C, n = 3", "result": "significant enhancement of antibacterial activity; also recorded: significant increase in antifungal activity"}, {"measurement": "pH stability of antifungal activity, pH 14", "setting": "F. graminearum [2]; pH 14, room temperature, 2.5 mg/mL, n = 3", "result": "complete loss of activity"}, {"measurement": "pH stability of antifungal activity, other pH conditions", "setting": "F. graminearum [2]; pH values from 2 to 14 other than 8, 10 and 14, room temperature, 2.5 mg/mL, n = 3", "result": "the activity remained stable"}, {"measurement": "Hyphal morphology by SEM", "setting": "F. graminearum hyphae", "result": "induced abnormal development"}, {"measurement": "ROS levels in F. graminearum cells (in words)", "setting": "F. graminearum [3]", "result": "induced abnormal ROS accumulation"}, {"measurement": "Cell membrane potential (in words)", "setting": "F. graminearum [4]", "result": "induced depolarization"}, {"measurement": "Activity after treatment with proteinase K", "setting": "proteinase K", "result": "retained their activity"}, {"measurement": "Activity after treatment with trypsin", "setting": "trypsin", "result": "retained their activity"}, {"measurement": "Activity after treatment with pepsin", "setting": "pepsin", "result": "retained their activity"}, {"measurement": "Activity after treatment with papain", "setting": "papain", "result": "retained their activity"}, {"measurement": "Half-inhibitory concentration (IC50) on F. graminearum", "setting": "F. graminearum [5]", "result": "approximately 30 μg/mL"}]}, {"molecule": "iturin A", "values": [{"measurement": "MIC, complete killing of F. graminearum conidia", "setting": "F. graminearum conidia", "result": 50, "unit": "µg/mL"}, {"measurement": "Cell membrane integrity of Fusarium oxysporum", "setting": "Fusarium oxysporum", "result": "disrupted"}, {"measurement": "ROS in Fusarium oxysporum", "setting": "Fusarium oxysporum", "result": "significantly increased"}]}, {"molecule": "surfactin", "values": [{"measurement": "Intracellular ROS accumulation in F. graminearum cells", "setting": "F. graminearum cells", "result": "induce intracellular ROS accumulation"}]}]}
